According to patent US8614201B2 (Janssen Pharmaceutica NV, priority 2009, dated 2013):

Target: Human TRPA1 (Homo sapiens, UniProt O75762)
Assay: Assay 1: In vitro cellular testing of TRPA1 modulation (CHO-TREx, Fluo-3 calcium fluorescence, AITC agonist)
Format: cell-based
Set-up: expressed in transfected cells; host or cells: CHO-TREx cells (Invitrogen), vector pcDNA4/TO
Conditions: CHO-TREx cells expressing human TRPA1; Fluo-3 fluorescence (FLIPR/Tetra); agonist 15 μM allyl isothiocyanate (AITC); 30 minute antagonist incubation
How it was run: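 Antagonist potency is the 50% reduction of the AITC (15 μM) calcium response, Hill-fitted against no-antagonist and 10 μM ruthenium red controls. Fluo-3-loaded (4 μM) CHO-TREx cells with tetracycline-inducible human TRPA1 got compound in HEPES saline pH 7.4 for 30 min, usually from 10 μM in three-fold dilutions.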

Sequence of Human TRPA1 (O75762 whole entry): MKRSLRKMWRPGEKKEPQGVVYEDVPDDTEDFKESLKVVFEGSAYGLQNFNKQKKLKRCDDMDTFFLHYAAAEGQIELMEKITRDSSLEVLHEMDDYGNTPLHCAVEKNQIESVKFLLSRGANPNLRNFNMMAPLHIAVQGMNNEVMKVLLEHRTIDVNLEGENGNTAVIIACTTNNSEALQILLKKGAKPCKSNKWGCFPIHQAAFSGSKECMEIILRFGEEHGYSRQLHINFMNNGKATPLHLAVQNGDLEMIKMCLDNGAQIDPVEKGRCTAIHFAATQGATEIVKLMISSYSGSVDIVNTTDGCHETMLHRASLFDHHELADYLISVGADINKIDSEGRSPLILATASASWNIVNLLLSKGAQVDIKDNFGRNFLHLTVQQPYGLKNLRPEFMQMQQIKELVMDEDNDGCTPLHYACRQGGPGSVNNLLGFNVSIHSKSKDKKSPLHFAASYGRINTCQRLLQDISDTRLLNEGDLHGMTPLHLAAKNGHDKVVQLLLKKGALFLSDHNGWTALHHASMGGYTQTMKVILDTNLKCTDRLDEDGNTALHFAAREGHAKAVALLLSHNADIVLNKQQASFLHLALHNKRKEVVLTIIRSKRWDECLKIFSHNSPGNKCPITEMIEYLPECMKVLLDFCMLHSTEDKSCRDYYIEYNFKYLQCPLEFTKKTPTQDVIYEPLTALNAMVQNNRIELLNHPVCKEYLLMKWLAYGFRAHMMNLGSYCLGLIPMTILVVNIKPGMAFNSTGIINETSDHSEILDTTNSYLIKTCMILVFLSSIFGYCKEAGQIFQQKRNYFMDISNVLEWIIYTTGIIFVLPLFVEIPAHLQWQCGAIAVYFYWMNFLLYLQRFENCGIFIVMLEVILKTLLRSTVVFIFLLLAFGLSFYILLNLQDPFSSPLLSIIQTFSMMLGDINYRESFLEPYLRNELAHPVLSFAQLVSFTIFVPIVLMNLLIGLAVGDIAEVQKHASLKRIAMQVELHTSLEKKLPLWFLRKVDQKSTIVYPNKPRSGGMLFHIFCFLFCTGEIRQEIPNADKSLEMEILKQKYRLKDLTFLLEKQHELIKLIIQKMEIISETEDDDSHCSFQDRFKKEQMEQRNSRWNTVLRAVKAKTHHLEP

Structure (SMILES) | IC50
O=C(NCc1cc(-c2ccc(C(F)(F)F)cc2)nc(N2CCCC2)c1)[C@@H]1CCCN1S(=O)(=O)c1ccc(F)cc1 [Example 317, 1-(4-Fluoro-benzenesulfonyl)-pyrrolidine-S2-carboxylic acid [2-pyrrolidin-1-yl-6-(4-trifluoromethyl-phenyl)-pyridin-4-ylmethyl]-amide] | 16 nM
O=C(NCc1cc(-c2ccc(C(F)(F)F)cc2)nc(N2CCCCC2)c1)[C@@H]1CCCN1S(=O)(=O)c1ccc(F)cc1 [Example 318, 1-(4-Fluoro-benzenesulfonyl)-pyrrolidine-S2-carboxylic acid [6′-(4-trifluoromethyl-phenyl)-3,4,5,6-tetrahydro-2H-[1,2′]bipyridinyl-4′-ylmethyl]-amide] | 29 nM
O=C(NCc1cc(-c2ccc(C(F)(F)F)cc2)nc(N2CCCCC2)c1)[C@@H]1CCCN1S(=O)(=O)c1ccc(Cl)s1 [Example 319, 1-(5-Chloro-thiophene-2-sulfonyl)-pyrrolidine-S2-carboxylic acid [6′-(4-trifluoromethyl-phenyl)-3,4,5,6-tetrahydro-2H-[1,2′]bipyridinyl-4′-ylmethyl]-amide] | 21 nM
O=C(NCc1cc(NCc2ccccc2)nc(-c2ccc(C(F)(F)F)cc2)c1)[C@@H]1C=CCN1S(=O)(=O)c1ccc(Cl)s1 [Example 320, (2S)—N-({2-(Benzylamino)-6-[4-(trifluoromethyl)phenyl]pyridin-4-yl}methyl)-1-[(5-chlorothiophen-2-yl)sulfonyl]-2,5-dihydro-1H-pyrrole-2-carboxamide] | 745 nM
O=C(NCc1cc(NCc2ccccc2)nc(-c2ccc(C(F)(F)F)cc2)c1)[C@@H]1C=CCN1S(=O)(=O)c1ccc(F)cc1 [Example 321, (2S)—N-({2-(Benzylamino)-6-[4-(trifluoromethyl)phenyl]pyridin-4-yl}methyl)-1-[(4-fluorophenyl)sulfonyl]-2,5-dihydro-1H-pyrrole-2-carboxamide] | 1020 nM
O=C(NCc1cc(NCc2ccccc2)nc(-c2ccc(C(F)(F)F)cc2)c1)[C@@H]1CCCN1S(=O)(=O)c1ccc(F)cc1 [Example 322, N-({2-(Benzylamino)-6-[4-(trifluoromethyl)phenyl]pyridin-4-yl}methyl)-1-[(4-fluorophenyl)sulfonyl]-L-prolinamide] | 1180 nM
O=C(NCc1cc(NCc2ccccc2)nc(-c2ccc(C(F)(F)F)cc2)c1)[C@@H]1CCCN1S(=O)(=O)c1ccc(Cl)s1 [Example 323, N-({2-(Benzylamino)-6-[4-(trifluoromethyl)phenyl]pyridin-4-yl}methyl)-1-[(5-chlorothiophen-2-yl)sulfonyl]-L-prolinamide] | 510 nM
O=C(NCc1cc(-c2ccc(C(F)(F)F)cc2)nc(N2CCN(c3ccccc3F)CC2)c1)[C@@H]1CCCN1S(=O)(=O)c1ccc(Cl)s1 [Example 324, 1-[(5-Chlorothiophen-2-yl)sulfonyl]-N-({2-[4-(2-fluorophenyl)piperazin-1-yl]-6-[4-(trifluoromethyl)phenyl]pyridin-4-yl}methyl)-L-prolinamide] | 412 nM
O=C(NCc1cc(-c2ccc(C(F)(F)F)cc2)nc(N2CCN(c3ccccc3F)CC2)c1)[C@@H]1CCCN1S(=O)(=O)c1ccc(F)cc1 [Example 325, N-({2-[4-(2-Fluorophenyl)piperazin-1-yl]-6-[4-(trifluoromethyl)phenyl]pyridin-4-yl}methyl)-1-[(4-fluorophenyl)sulfonyl]-L-prolinamide] | 845 nM
O=C(NCc1cc(-c2ccc(C(F)(F)F)cc2)nc(N2CCN(c3ccccc3F)CC2)c1)[C@@H]1C=CCN1S(=O)(=O)c1ccc(F)cc1 [Example 326, (2S)—N-({2-[4-(2-Fluorophenyl)piperazin-1-yl]-6-[4-(trifluoromethyl)phenyl]pyridin-4-yl}methyl)-1-[(4-fluorophenyl)sulfonyl]-2,5-dihydro-1H-pyrrole-2-carboxamide] | 5970 nM
O=C(NCc1cc(-c2ccc(C(F)(F)F)cc2)nc(N2CCN(Cc3ccncc3)CC2)c1)[C@@H]1CCCN1S(=O)(=O)c1ccc(Cl)s1 [Example 327, 1-[(5-Chlorothiophen-2-yl)sulfonyl]-N-({2-[4-(pyridin-4-ylmethyl)piperazin-1-yl]-6-[4-(trifluoromethyl)phenyl]pyridin-4-yl}methyl)-L-prolinamide] | 587 nM
O=C(NCc1cc(-c2ccc(C(F)(F)F)cc2)nc(N2CCN(Cc3cccnc3)CC2)c1)[C@@H]1CCCN1S(=O)(=O)c1ccc(F)cc1 [Example 328, 1-[(4-Fluorophenyl)sulfonyl]-N-({2-[4-(pyridin-3-ylmethyl)piperazin-1-yl]-6-[4-(trifluoromethyl)phenyl]pyridin-4-yl}methyl)-L-prolinamide] | 682 nM
O=C(NCc1cc(-c2ccc(C(F)(F)F)cc2)nc(N2CCN(Cc3ccncc3)CC2)c1)[C@@H]1C=CCN1S(=O)(=O)c1ccc(F)cc1 [Example 329, (2S)-1-[(4-Fluorophenyl)sulfonyl]-N-({2-[4-(pyridin-4-ylmethyl)piperazin-1-yl]-6-[4-(trifluoromethyl)phenyl]pyridin-4-yl}methyl)-2,5-dihydro-1H-pyrrole-2-carboxamide] | 1760 nM
O=C(NCc1cc(NCc2ccccn2)nc(-c2ccc(C(F)(F)F)cc2)c1)[C@@H]1C=CCN1S(=O)(=O)c1ccc(Cl)s1 [Example 330, (2S)-1-[(5-Chlorothiophen-2-yl)sulfonyl]-N-({2-[(pyridin-2-ylmethyl)amino]-6-[4-(trifluoromethyl)phenyl]pyridin-4-yl}methyl)-2,5-dihydro-1H-pyrrole-2-carboxamide] | 604 nM
CN(C)c1cc(CNC(=O)[C@@H]2CCCN2S(=O)(=O)c2ccc(F)cc2)cc(-c2ccc(C(F)(F)F)cc2)n1 [Example 331, N-({2-(Dimethylamino)-6-[4-(trifluoromethyl)phenyl]pyridin-4-yl}methyl)-1-[(4-fluorophenyl)sulfonyl]-L-prolinamide] | 176 nM
CN(C)c1cc(CNC(=O)[C@@H]2CCCN2S(=O)(=O)c2ccc(Cl)s2)cc(-c2ccc(C(F)(F)F)cc2)n1 [Example 332, 1-[(5-Chlorothiophen-2-yl)sulfonyl]-N-({2-(dimethylamino)-6-[4-(trifluoromethyl)phenyl]pyridin-4-yl}methyl)-L-prolinamide] | 58 nM
CC1CCCN1c1cc(CNC(=O)[C@@H]2CCCN2S(=O)(=O)c2ccc(Cl)s2)cc(-c2ccc(C(F)(F)F)cc2)n1 (stereo partly drawn) [Example 333, 1-[(5-Chlorothiophen-2-yl)sulfonyl]-N-({2-(2-methylpyrrolidin-1-yl)-6-[4-(trifluoromethyl)phenyl]pyridin-4-yl}methyl)-L-prolinamide] | 73 nM

Next, values leading:

IC50 | Structure (SMILES)
2630 nM | CN(C)c1cc(CNC(=O)[C@@H]2C=CCN2S(=O)(=O)c2ccc(Cl)s2)cc(-c2ccc(C(F)(F)F)cc2)n1 [Example 334, (2S)-1-[(5-Chlorothiophen-2-yl)sulfonyl]-N-({2-(dimethylamino)-6-[4-(trifluoromethyl)phenyl]pyridin-4-yl}methyl)-2,5-dihydro-1H-pyrrole-2-carboxamide]
179 nM | CNc1cc(CNC(=O)[C@@H]2CCCN2S(=O)(=O)c2ccc(Cl)s2)cc(-c2ccc(C(F)(F)F)cc2)n1 [Example 335, 1-[(5-Chlorothiophen-2-yl)sulfonyl]-N-({2-(methylamino)-6-[4-(trifluoromethyl)phenyl]pyridin-4-yl}methyl)-L-prolinamide]
113 nM | CC1CCCN1c1cc(CNC(=O)[C@@H]2CCCN2S(=O)(=O)c2ccc(F)cc2)cc(-c2ccc(C(F)(F)F)cc2)n1 (stereo partly drawn) [Example 336, 1-[(4-Fluorophenyl)sulfonyl]-N-({2-(2-methylpyrrolidin-1-yl)-6-[4-(trifluoromethyl)phenyl]pyridin-4-yl}methyl)-L-prolinamide]
1010 nM | CNc1cc(CNC(=O)[C@@H]2CCCN2S(=O)(=O)c2ccc(F)cc2)cc(-c2ccc(C(F)(F)F)cc2)n1 [Example 337, 1-[(4-Fluorophenyl)sulfonyl]-N-({2-(methylamino)-6-[4-(trifluoromethyl)phenyl]pyridin-4-yl}methyl)-L-prolinamide]
382 nM | CN(C)c1cc(CNC(=O)[C@@H]2C=CCN2S(=O)(=O)c2ccc(F)cc2)cc(-c2ccc(C(F)(F)F)cc2)n1 [Example 338, (2S)—N-({2-(Dimethylamino)-6-[4-(trifluoromethyl)phenyl]pyridin-4-yl}methyl)-1-[(4-fluorophenyl)sulfonyl]-2,5-dihydro-1H-pyrrole-2-carboxamide]
251 nM | O=C(NCc1cc(-c2ccc(C(F)(F)F)cc2)nc(N2CCN(Cc3ccccn3)CC2)c1)[C@@H]1CCCN1S(=O)(=O)c1ccc(Cl)s1 [Example 339, 1-[(5-Chlorothiophen-2-yl)sulfonyl]-N-({2-[4-(pyridin-2-ylmethyl)piperazin-1-yl]-6-[4-(trifluoromethyl)phenyl]pyridin-4-yl}methyl)-L-prolinamide]
210 nM | O=C(NCc1cc(-c2ccc(C(F)(F)F)cc2)nc(N2CCN(Cc3ccncc3)CC2)c1)[C@@H]1C=CCN1S(=O)(=O)c1ccc(Cl)s1 [Example 340, (2S)-1-[(5-Chlorothiophen-2-yl)sulfonyl]-N-({2-[4-(pyridin-4-ylmethyl)piperazin-1-yl]-6-[4-(trifluoromethyl)phenyl]pyridin-4-yl}methyl)-2,5-dihydro-1H-pyrrole-2-carboxamide]
693 nM | O=C(NCc1cc(-c2ccc(C(F)(F)F)cc2)nc(N2CCN(Cc3cccnc3)CC2)c1)[C@@H]1CCCN1S(=O)(=O)c1ccc(Cl)s1 [Example 341, 1-[(5-Chlorothiophen-2-yl)sulfonyl]-N-({2-[4-(pyridin-3-ylmethyl)piperazin-1-yl]-6-[4-(trifluoromethyl)phenyl]pyridin-4-yl}methyl)-L-prolinamide]
